Assay [1] deals with E. coli O-157. Nature of the assay: Metal ion or food preservative added to growth medium, viable count. It is filed as cell-based. Conditions: metal ion in growth medium. The method, then:
(§1) To a standard medium for counting viable bacteria described below, each metal ion with varied concentration was added. […] Then, the number of viable bacteria was counted with time in a common procedure.
(§2) Sample bacteria: S. aureus 209P as a representative of Gram-positive bacteria • E. coli 0-157 as a representative of Gram-negative bacteria
(§3) Standard medium for counting viable bacteria: yeast extract 2.5 g, peptone 5 g, glucose 1 g, agar 15 g, pH 7.2

Assay [2] has as its system sample bacteria (S. aureus 209P, E. coli O-157). Nature of the assay: Death rate over time, food preservative in purified water pH 3.0.
The subject of assay [3] is E. coli O-157. Nature of the assay: Metal ion or food preservative added to growth medium, viable count. It is filed as cell-based. Conditions: food preservative in growth medium.
A further assay relates to S. aureus 209P. The assay is described as above. It is filed as cell-based. On the procedure:
as §1, §2, §3

Where [4] appears, read: food preservative in growth medium.

Each structure is given as a SMILES string.

As to `O=[N+]([O-])[O-].[Ag+]` [Ag^+, AgNO3], in the assay with E. coli O-157 [1], the “(a) Antiproliferative activity, concentration” value (“(a) Antiproliferative activity” for short) was 0.05~2 ppm; the “(b) Bacteriostatic activity, concentration” value (“(b) Bacteriostatic activity” for short) is 2~4 ppm; the “(c) Bactericidal activity, concentration” value was determined as 4 ppm>.
As to `O=C(O)c1ccccc1` [Benzoic acid], the Death rate in assay [2] (50 ppm, 5 min) is listed as 0; in assay [2] (50 ppm, 10 min), 0; in assay [2] (50 ppm, 15 min), 0; in assay [2] (50 ppm, 30 min), 1; in assay [2] (50 ppm, 60 min), 5; in assay [2] (50 ppm, 90 min) it was 10. For the same molecule, the Death rate in assay [2] (50 ppm, 120 min) was found to be 12; in assay [2] (200 ppm, 5 min) it was 0; in assay [2] (200 ppm, 10 min), 0; in assay [2] (200 ppm, 15 min), 0; in assay [2] (200 ppm, 30 min), 2; in assay [2] (200 ppm, 60 min), 7. The Death rate is given as 10 in assay [2] (200 ppm, 90 min); 12 in assay [2] (200 ppm, 120 min); 0 in assay [2] (500 ppm, 5 min); 0 in assay [2] (500 ppm, 10 min); 1 in assay [2] (500 ppm, 15 min); 3 in assay [2] (500 ppm, 30 min). In addition, the Death rate in assay [2] (500 ppm, 60 min) worked out at 8; in assay [2] (500 ppm, 90 min) it was 12; in assay [2] (500 ppm, 120 min) it was 15. Further, the “(a) Antiproliferative activity” value with E. coli O-157 [3] and with S. aureus 209P (setting [4]) was 25~200 ppm in each case. Besides, the “(b) Bacteriostatic activity” value with E. coli O-157 [3] and in the assay on S. aureus 209P (setting [4]) was 180 ppm> each time.
Consider `O.O.O.O.O.O.[Cl-].[Cl-].[Co+2]` [Co^2+, CoCl2•6H2O], for which, in the assay on E. coli O-157 [1], the “(a) Antiproliferative activity” value is 100~250 ppm; the “(b) Bacteriostatic activity” value is given as 220~500 ppm; the “(c) Bactericidal activity, concentration” value was 500 ppm>; the “Acceleration of growth, concentration” value is 25 ppm<. In addition, in the assay with S. aureus 209P (metal ion in growth medium), the “(c) Bactericidal activity, concentration” value is 500 ppm> and the “Acceleration of growth, concentration” value was 20 ppm<.
`CCOC(=O)c1ccc(O)cc1` [Ethyl para-hydroxybenzoate]: the Death rate was determined as 0 in assay [2] (50 ppm, 5 min); 0 in assay [2] (50 ppm, 10 min); 0 in assay [2] (50 ppm, 15 min); 2 in assay [2] (50 ppm, 30 min); 5 in assay [2] (50 ppm, 60 min); 8 in assay [2] (50 ppm, 90 min). Further, the Death rate is on record as 12 in assay [2] (50 ppm, 120 min); 0 in assay [2] (200 ppm, 5 min); 0 in assay [2] (200 ppm, 10 min); 0 in assay [2] (200 ppm, 15 min); 2 in assay [2] (200 ppm, 30 min); 5 in assay [2] (200 ppm, 60 min). Further, the Death rate in assay [2] (200 ppm, 90 min) is on record as 10; in assay [2] (200 ppm, 120 min), 12; in assay [2] (500 ppm, 5 min), 0; in assay [2] (500 ppm, 10 min), 0; in assay [2] (500 ppm, 15 min) it was 0; in assay [2] (500 ppm, 30 min) it was 2. Besides, the Death rate in assay [2] (500 ppm, 60 min) is 7; in assay [2] (500 ppm, 90 min) it was 12; in assay [2] (500 ppm, 120 min), 15. For the same molecule, the results for the “(a) Antiproliferative activity” value in the assay on E. coli O-157 [3] and in the assay with S. aureus 209P (setting [4]) were 40~300 ppm and 50~300 ppm, respectively. Also, the “(b) Bacteriostatic activity” value in the assay with E. coli O-157 [3] was 230 ppm>; with S. aureus 209P (setting [4]), 250 ppm>.
Regarding `O.O.O.O.O.O.O.O=S(=O)([O-])[O-].[Ni+2]` [Ni^2+, NiSO4•7H2O], in the assay with E. coli O-157 [1], the “(a) Antiproliferative activity” value is listed as 20~170 ppm; the “(b) Bacteriostatic activity” value was 150~350 ppm; the “(c) Bactericidal activity, concentration” value stood at 350 ppm>; the “Acceleration of growth, concentration” value is reported as 10 ppm<. In the assay on S. aureus 209P (metal ion in growth medium), the “(a) Antiproliferative activity” value is on record as 25~150 ppm; the “(b) Bacteriostatic activity” value is reported as 120~300 ppm; the “(c) Bactericidal activity, concentration” value amounted to 300 ppm>; the “Acceleration of growth, concentration” value was 5 ppm<.
In the case of `C/C=C/C=C/C(=O)[O-].[K+]` [Potassium sorbate], the Death rate is recorded as 0 in assay [2] (50 ppm, 5 min); 0 in assay [2] (50 ppm, 10 min); 0 in assay [2] (50 ppm, 15 min); 2 in assay [2] (50 ppm, 30 min); 5 in assay [2] (50 ppm, 60 min); 8 in assay [2] (50 ppm, 90 min). For the same molecule, the Death rate turned out to be 12 in assay [2] (50 ppm, 120 min); 0 in assay [2] (200 ppm, 5 min); 0 in assay [2] (200 ppm, 10 min); 0 in assay [2] (200 ppm, 15 min); 2 in assay [2] (200 ppm, 30 min); 6 in assay [2] (200 ppm, 60 min). Besides, the Death rate in assay [2] (200 ppm, 90 min) stood at 10; in assay [2] (200 ppm, 120 min), 15; in assay [2] (500 ppm, 5 min), 0; in assay [2] (500 ppm, 10 min), 0; in assay [2] (500 ppm, 15 min) it was 1; in assay [2] (500 ppm, 30 min) it was 3. The Death rate in assay [2] (500 ppm, 60 min) turned out to be 7; in assay [2] (500 ppm, 90 min), 12; in assay [2] (500 ppm, 120 min), 18. In addition, the “(a) Antiproliferative activity” value is reported as 30~250 ppm with E. coli O-157 [3] and 35~250 ppm in the assay with S. aureus 209P (setting [4]). Besides, the results for the “(b) Bacteriostatic activity” value in the assay with E. coli O-157 [3] and in the assay on S. aureus 209P (setting [4]) were 250 ppm> and 200 ppm>, respectively.
Turning to `O=C([O-])c1ccccc1.[Na+]` [Sodium benzoate], the Death rate came out at 0 in assay [2] (50 ppm, 5 min); 0 in assay [2] (50 ppm, 10 min); 0 in assay [2] (50 ppm, 15 min); 2 in assay [2] (50 ppm, 30 min); 5 in assay [2] (50 ppm, 60 min); 8 in assay [2] (50 ppm, 90 min). Besides, the Death rate in assay [2] (50 ppm, 120 min) amounted to 10; in assay [2] (200 ppm, 5 min) it was 0; in assay [2] (200 ppm, 10 min), 0; in assay [2] (200 ppm, 15 min) it was 0; in assay [2] (200 ppm, 30 min), 2; in assay [2] (200 ppm, 60 min), 5. Further, the Death rate in assay [2] (200 ppm, 90 min) worked out at 10; in assay [2] (200 ppm, 120 min), 12; in assay [2] (500 ppm, 5 min), 0; in assay [2] (500 ppm, 10 min), 0; in assay [2] (500 ppm, 15 min), 1; in assay [2] (500 ppm, 30 min), 3. Moreover, the Death rate in assay [2] (500 ppm, 60 min) came to 8; in assay [2] (500 ppm, 90 min), 12; in assay [2] (500 ppm, 120 min), 15. Also, the “(a) Antiproliferative activity” value in the assay with E. coli O-157 [3] and with S. aureus 209P (setting [4]) was 40~300 ppm in each case. Besides, the “(b) Bacteriostatic activity” value with E. coli O-157 [3] turned out to be 220 ppm>; in the assay on S. aureus 209P (setting [4]) it was 250 ppm>.
As to `C/C=C/C=C/C(=O)O` [Sorbic acid], the Death rate in assay [2] (50 ppm, 5 min) is 0; in assay [2] (50 ppm, 10 min), 0; in assay [2] (50 ppm, 15 min), 0; in assay [2] (50 ppm, 30 min), 2; in assay [2] (50 ppm, 60 min), 5; in assay [2] (50 ppm, 90 min) it was 10. In addition, the Death rate in assay [2] (50 ppm, 120 min) came out at 15; in assay [2] (200 ppm, 5 min) it was 0; in assay [2] (200 ppm, 10 min), 0; in assay [2] (200 ppm, 15 min), 0; in assay [2] (200 ppm, 30 min), 2; in assay [2] (200 ppm, 60 min), 7. Also, the Death rate in assay [2] (200 ppm, 90 min) came out at 12; in assay [2] (200 ppm, 120 min) it was 18; in assay [2] (500 ppm, 5 min), 0; in assay [2] (500 ppm, 10 min), 0; in assay [2] (500 ppm, 15 min), 1; in assay [2] (500 ppm, 30 min) it was 3. The Death rate amounted to 10 in assay [2] (500 ppm, 60 min); 15 in assay [2] (500 ppm, 90 min); 20 in assay [2] (500 ppm, 120 min). The “(a) Antiproliferative activity” value with E. coli O-157 [3] and in the assay on S. aureus 209P (setting [4]) was 20~200 ppm in each case. Also, the results for the “(b) Bacteriostatic activity” value with E. coli O-157 [3] and with S. aureus 209P (setting [4]) were 200 ppm> and 150 ppm>, respectively.
On to `O.O.O.O.O.O.O.O=S(=O)([O-])[O-].[Zn+2]` [Zn^2+, ZnSO4•7H2O], for which, in the assay on E. coli O-157 [1], the “(a) Antiproliferative activity” value is 10~15 ppm; the “(b) Bacteriostatic activity” value is recorded as 15~250 ppm; the “(c) Bactericidal activity, concentration” value is listed as 250 ppm>; the “Acceleration of growth, concentration” value came to 10 ppm<. Moreover, in the assay on S. aureus 209P (metal ion in growth medium), the “(a) Antiproliferative activity” value is on record as 12~18 ppm; the “(b) Bacteriostatic activity” value is listed as 16~200 ppm; the “(c) Bactericidal activity, concentration” value came to 200 ppm>; the “Acceleration of growth, concentration” value is recorded as 10 ppm<.

Source of the values: patent US20110236504A1, “VERSATILE DISINFECTANT” (priority 2008, published 2011).
